Laboratory results from the supplement of paper PMC6045584.
± gives the standard deviation of the averaged measurements.

Assays:
SAPACITABINE [1] = compound: T1, CCCCCCCCCCCCCCCC(=O)Nc1ccn([C@@H]2O[C@H](CO)[C@@H](O)[C@@H]2C#N)c(=O)n1 [SAPACITABINE]; assay: surviving fraction relative to DMSO-only wells; higher = less growth inhibition; conditions: exposure time: 5 days
Method in brief: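 Log-phase tumour cells were seeded at 250–500 per well in 384-well plates and, from 24 hours after seeding, exposed continuously for five days to inhibitors at 0.5, 1, 5, 10, 50, 100, 500 and 1000 nM. Surviving fraction is CellTiter-Glo luminescence normalised to the median of DMSO-only wells. Luminescence was measured after 10 minutes at room temperature, and only lines screened three times with replicate Pearson r >0.7 and median Z' >0.3 were kept.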

SAPACITABINE [2] = compound: T1, SAPACITABINE; assay: area under dose-response curve of surviving fraction (unscaled, Aref=0) (surviving fraction x log10(nM)); higher = more resistant; conditions: exposure time: 5 days; dose range 0.5-1000 nM
Method in brief: (§1)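 Tumour cell lines in 384-well plates were exposed to eight inhibitor concentrations, from 0.5 to 1000 nM, for five days, and viability was read by CellTiter-Glo luminescence in three screens per line. Signals were normalised to DMSO-only wells, and 3-parameter logistic regression in the drc R package fitted dose-response survival curves to the surviving fractions. Area under the curve is given as the unscaled activity area. That area is taken over log10 dose with Aref = 0.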

MDV3100 = compound: CNC(=O)c1ccc(N2C(=S)N(c3ccc(C#N)c(C(F)(F)F)c3)C(=O)C2(C)C)cc1F [MDV3100]; assay: as above; conditions: exposure time: 5 days; dose range 0.5-1000 nM
Method in brief: as §1

[3] = compound: Cn1cc(C2=Nc3cc(NC(=O)C(N)C4CCCCC4)cc4c3C2=CNNC4=O)cn1; assay: as above; conditions: exposure time: 5 days; dose range 0.5-1000 nM
Method in brief: as §1

TIOGUANINE = compound: Nc1nc2[nH]cnc2c(=S)[nH]1 [TIOGUANINE]; assay: as above; conditions: exposure time: 5 days; dose range 0.5-1000 nM
Method in brief: as §1

CANERTINIB = compound: C=CC(=O)Nc1cc2c(Nc3ccc(F)c(Cl)c3)ncnc2cc1OCCCN1CCOCC1 [CANERTINIB]; assay: as above; conditions: exposure time: 5 days; dose range 0.5-1000 nM
Method in brief: as §1

BI-2536 = compound: CC[C@@H]1C(=O)N(C)c2cnc(Nc3ccc(C(=O)NC4CCN(C)CC4)cc3OC)nc2N1C1CCCC1 [BI-2536]; assay: as above; conditions: exposure time: 5 days; dose range 0.5-1000 nM
Method in brief: as §1

SNX-5422 = compound: CC1(C)CC(=O)c2c(C(F)(F)F)nn(-c3ccc(C(N)=O)c(N[C@H]4CC[C@H](OC(=O)CN)CC4)c3)c2C1 [SNX-5422]; assay: as above; conditions: exposure time: 5 days; dose range 0.5-1000 nM
Method in brief: as §1

AFATINIB = compound: CN(C)C/C=C/C(=O)Nc1cc2c(Nc3ccc(F)c(Cl)c3)ncnc2cc1O[C@H]1CCOC1 [AFATINIB]; assay: as above; conditions: exposure time: 5 days; dose range 0.5-1000 nM
Method in brief: as §1

Test System | surviving fraction (SAPACITABINE [1]; 0.5 nM) | surviving fraction (SAPACITABINE [1]; 1 nM) | surviving fraction (SAPACITABINE [1]; 5 nM) | surviving fraction (SAPACITABINE [1]; 10 nM) | surviving fraction (SAPACITABINE [1]; 50 nM) | surviving fraction (SAPACITABINE [1]; 100 nM) | surviving fraction (SAPACITABINE [1]; 500 nM) | surviving fraction (SAPACITABINE [1]; 1000 nM) | area under dose-response curve (SAPACITABINE [2]) | area under dose-response curve (MDV3100) | area under dose-response curve [3] | area under dose-response curve (TIOGUANINE) | area under dose-response curve (CANERTINIB) | area under dose-response curve (BI-2536) | area under dose-response curve (SNX-5422) | area under dose-response curve (AFATINIB)
SUM149.B1*.S BREAST | 0.918 ± 0.067 | 0.792 ± 0.011 | 0.888 ± 0.01 | 0.455 ± 0.022 | 0.839 ± 0.023 | 0.567 ± 0.066 | 0.281 ± 0.022 | 0.428 ± 0.022 | 1.89 | 2.91 | 3.05 | 3.25 | 3 | 2 | 2.31 | 
143B BONE | 1.03 ± 0.067 | 1.05 ± 0.029 | 1.08 ± 0.069 | 1.06 ± 0.03 | 1.08 ± 0.047 | 1.12 ± 0.098 | 1.05 ± 0.079 | 0.942 ± 0.05 |  |  | 2.8 | 3.27 |  | 0.815 | 2.02 | 3.29
CME SYNOVIAL | 0.788 ± 0.087 | 0.415 ± 0.05 | 0.703 ± 0.091 | 0.027 ± 0.011 | 0.922 ± 0.077 | 0.379 ± 0.075 | 0.248 ± 0.016 | 0.034 ± 0.0076 | 1.45 | 2.99 |  | 3.97 | 3.18 | 1.64 | 2.5 | 4.36
SUM149 BREAST | 0.829 ± 0.11 | 0.666 ± 0.055 | 0.69 ± 0.11 | 0.188 ± 0.006 | 0.339 ± 0.031 | 0.22 ± 0.018 | 0.236 ± 0.016 | 0.186 ± 0.021 | 1.31 | 2.73 | 1.97 |  | 1.76 | 0.784 | 1.7 | 1.98
SCC90 HEADNECK | 0.88 ± 0.089 | 0.794 ± 0.074 | 0.862 ± 0.011 | 0.848 ± 0.053 | 1.06 ± 0.13 | 0.953 ± 0.087 | 0.853 ± 0.015 | 0.999 ± 0.064 | 3.07 |  | 2.53 | 3.22 | 2.13 | 0.697 | 1.96 | 1.7
SCC47 HEADNECK | 0.937 ± 0.093 | 0.939 ± 0.063 | 0.982 ± 0.063 | 0.948 ± 0.072 | 1.05 ± 0.057 | 0.988 ± 0.079 | 0.71 ± 0.033 | 0.597 ± 0.0027 | 3.12 | 3.22 |  | 2.97 | 2.83 | 1.87 | 2.08 | 2.35
SG28 HEADNECK | 0.756 ± 0.14 | 0.629 ± 0.18 | 0.721 ± 0.26 | 0.216 ± 0.099 | 0.996 ± 0.12 | 0.864 ± 0.054 | 0.934 ± 0.11 | 0.422 ± 0.0014 |  |  | 2.64 | 3.45 |  | 2.69 | 2.19 | 1.78
RDES SOFT TISSUE | 0.706 ± 0.16 | 0.765 ± 0.047 | 0.717 ± 0.13 | 0.629 ± 0.12 | 0.919 ± 0.073 | 0.984 ± 0.034 | 0.779 ± 0.15 | 0.117 ± 0.052 | 2.34 | 3.91 | 2.71 |  | 2.83 | 1.09 | 2.11 | 3.88
ASKA SYNOVIAL | 0.917 ± 0.028 | 0.783 ± 0.0061 | 0.865 ± 0.024 | 0.327 ± 0.053 | 0.911 ± 0.043 | 0.688 ± 0.044 | 0.489 ± 0.01 | 0.203 ± 0.014 | 2.18 |  | 2.3 | 3.56 |  | 1.04 | 2.11 | 3.14
